Holding throughout (assay): Heart Infusion Agar Dilution Method, antimicrobial activity
Holding throughout (assay type): cell-based

Experiment [1] relates to Pseudomonas aeruginosa #1.
Description: (§1) Heart Infusion Agar Dilution Method (pH 7.2) is used.
as §1

The test system of another experiment is Proteus rettgeri KY 4289. The conditions noted are these: Providencia rettgeri, KY4289; Proteus retteri KY 4289; pH 7.2; Example 6. The source says: (§2) Antimicrobial activities of the compound obtained in Example 1 are as follows. Heart Infusion Agar Dilution Method (pH 7.2) is used.
(§3) Antimicrobial activities of the compound obtained in Example 4 and 5 are as follows. Heart Infusion Agar Dilution Method (pH 7.2) is used. Cefazolin is used as a control.

Experiment [2] deals with Staphylococcus aureus 209-P. The conditions noted are these: pH 7.2, Example 6.
Description: as §2, §3

Experiment [3] has as its system Staphylococcus aureus Smith. The note with it: pH 7.2, Example 6.
Description: as §2, §3

Another experiment deals with Proteus vulgaris 6897. The conditions noted are these: pH 7.2, Example 6.
Description: as §2, §3

A further experiment has as its system Pseudomonas putida 264. The note with it: pH 7.2, Example 6.
Description: as §2, §3

Experiment [4] deals with Klebsiella pneumoniae Y-60. The conditions noted are these: Y60, pH 7.2, Example 6.
Description: as §1, §1

A further experiment deals with Escherichia coli NIHJC-2. The conditions noted are these: NIHJC2, pH 7.2, Example 6.
Description: as §1, §1

The next experiment relates to Serratia marcescens T-26. The note with it: T26, pH 7.2, Example 6.
Description: as §1, §1

Another experiment deals with Serratia marcescens T-55. The note with it: T55, pH 7.2, Example 6.
Description: as §1, §1

The next experiment has as its system Proteus mirabilis 1287. The conditions noted are these: pH 7.2, Example 6.
Description: as §1, §1

Experiment [5] concerns Klebsiella pneumoniae 8045. The conditions noted are these: pH 7.2, Example 6.
Description: as §1, §1

Another experiment has as its system Escherichia coli Juhl. The conditions noted are these: pH 7.2, Example 6.
Description: as §1, §1

The subject of the next experiment is Proteus morganii KY 4298. The conditions noted are these: Morganella morganii, KY4298, pH 7.2, Example 6.
Description: as §2, §3

Experiment [6] has as its system Pseudomonas aeruginosa 145. The conditions noted are these: pH 7.2, Example 6.
Description: as §2, §3

Experiment [7] deals with Escherichia coli GN2411-5. The note with it: pH 7.2, Example 6.
Description: as §2, §3

Experiment [8] has as its system Staphylococcus epidermidis. The conditions noted are these: pH 7.2, Example 6.
Description: as §2, §3

Converted amounts (≈) assume the structure as drawn.

For the compound `CO/N=C(\C(=O)N[C@@H]1C(=O)N2C(C(=O)O)=C[C@@H](O)C[C@H]12)c1csc(N)n1` [A, (4S, 6R, 7S)-7-[2-(2-amino-4-thiazolyl)-2-syn-methoxyiminoacetamido]-4-hydroxy-1-azabicyclo[4,2,0] oct-2-en-8-on-2-carboxylic acid], in [1] (pH 7.2), the MIC worked out at 0.73 µg/mL (≈ 1.91 µM).

Turning to `Cc1nnc(SCC2=C(C(=O)O)N3C(=O)[C@@H](NC(=O)Cn4cnnn4)[C@H]3SC2)s1` [Cefazolin, reference compound], the MIC in the experiment with Proteus rettgeri KY 4289 was determined as 12.5 µg/mL (≈ 27.5 µM); in experiment [2], 0.05 µg/mL (≈ 0.11 µM); in [3], 0.2 µg/mL (≈ 0.44 µM); in the experiment on Proteus vulgaris 6897 it was 50 µg/mL (≈ 110 µM); with Pseudomonas putida 264, 50 µg/mL (≈ 110 µM).

`CC(C)(O/N=C(\C(=O)N[C@@H]1C(=O)N2C(C(=O)O)=C[C@@H](O)C[C@H]12)c1csc(N)n1)C(=O)O` [Example 4, (4S, 6R, 7S)-7-[2-(2-amino-4-thiazolyl)-2-syn-(2-carboxyprop-2-oxyimino)acetamido]-4-hydroxy-1-azabicyclo[4,2,0]oct-2-en-8-on-2-carboxylic acid]: the minimal inhibitory concentration (MIC) came to 0.2 µg/mL (≈ 0.441 µM) in experiment [4]; 0.78 µg/mL (≈ 1.72 µM) in the experiment on Escherichia coli NIHJC-2; 0.78 µg/mL (≈ 1.72 µM) against Serratia marcescens T-26; 0.4 µg/mL (≈ 0.882 µM) against Serratia marcescens T-55; 0.78 µg/mL (≈ 1.72 µM) in [1] (pH 7.2, Example 6); 0.02 µg/mL (≈ 0.0441 µM) against Proteus mirabilis 1287. Also, the minimal inhibitory concentration (MIC) in experiment [5] was 0.2 µg/mL (≈ 0.441 µM); in the experiment with Escherichia coli Juhl it was 0.4 µg/mL (≈ 0.882 µM); with Proteus rettgeri KY 4289, at most 0.01 µg/mL; in experiment [2] it was over 100 µg/mL; against Proteus morganii KY 4298, 0.1 µg/mL (≈ 0.221 µM); in [6] it was 3.12 µg/mL (≈ 6.88 µM). For the same compound, the MIC in experiment [3] is over 100 µg/mL; in [7], 0.2 µg/mL (≈ 0.441 µM); against Proteus vulgaris 6897, at most 0.01 µg/mL; in experiment [8], over 100 µg/mL; against Pseudomonas putida 264, at most 0.01 µg/mL.

`CO/N=C(\C(=O)N[C@@H]1C(=O)N2C(C(=O)O)=C[C@@H](O)C[C@H]12)c1nc(N)sc1Br` [Example 5, (4S, 6R, 7S)-7-[2-(2-amino-5-bromo-4-thiazolyl)-2-syn-methoxyiminoacetamido]-4-hydroxy-1-azabicyclo[4,2,0]oct-2-en-8-on-2-carboxylic acid]: the MIC in experiment [4] is 1.56 µg/mL (≈ 3.39 µM); with Escherichia coli NIHJC-2, 3.12 µg/mL (≈ 6.78 µM); in the experiment on Proteus mirabilis 1287, 1.56 µg/mL (≈ 3.39 µM); in experiment [5], 0.78 µg/mL (≈ 1.69 µM); with Escherichia coli Juhl, 3.12 µg/mL (≈ 6.78 µM); with Proteus rettgeri KY 4289 it was at most 0.01 µg/mL. The minimum inhibitory concentration (MIC) was 50 µg/mL (≈ 109 µM) in experiment [2]; 1.56 µg/mL (≈ 3.39 µM) in the experiment with Proteus morganii KY 4298; 25 µg/mL (≈ 54.3 µM) in experiment [6]; 50 µg/mL (≈ 109 µM) in experiment [3]; 0.78 µg/mL (≈ 1.69 µM) in experiment [7]; 0.2 µg/mL (≈ 0.435 µM) against Proteus vulgaris 6897. Besides, the MIC in experiment [8] came to 100 µg/mL (≈ 217 µM); against Pseudomonas putida 264 it was 0.2 µg/mL (≈ 0.435 µM).

For the origin of these results see patent US4663450A, “Optically active cephalosporin analogs” (Kyowa Hakko Kogyo Co., Ltd., priority 1979, dated 1987).
